How the values were obtained:
LA cardiomyocytes = assay: Spontaneous SR Ca2+ release events (SCaEs) of isolated LA cardiomyocytes; type: cell-based, rat; settings: baseline conditions; antioxidative treatment; both HFpEF groups
Excerpt: Cardiomyocyte isolation. LA and LV cardiomyocytes were isolated using enzymatic digestion as previously described in detail. See Bode D, Guthof T, Pieske B M, Heinzel F R, Hohendanner F: “Isolation of Atrial Cardiomyocytes from a Rat Model of Metabolic Syndrome-related Heart Failure with Preserved Ejection Fraction,” J Vis Exp 2018(137).
Solutions and chemicals. Chemicals were obtained from Sigma-Aldrich (St. Louis, MO, USA) unless noted otherwise. The dual SGLT1/2 inhibitor sotagliflozin was provided by Lexicon Pharmaceuticals (The Woodlands, TX, USA). Fluorescent dyes Fura-2 AM, Rhod-2 AM, MitoTracker red, MitoTracker green, TMRE and H2-DCF were obtained from Thermo Fisher Scientific (Waltham, MA, USA). Tyrode solution contained (in mM): 130 NaCL, 4 KCl, 2 CaCl, 1 MgCl2, 10 Glucose, 10 HEPES; pH adjusted to 7.4 with NaOH. LA cardiomyocytes were plated on laminin-coated glass coverslips. 20 mM caffeine was added to Tyrode solution to induce sarcoplasmic reticulum (SR) Ca^2+ release and obtain a measure of SR Ca^2+ content. […]
Ca^2+ measurements and sarcomere shortening. Radiometric Ca^2+ measurements (excitation: 340 nm and 385 nm, emission: 510±10 nm; [Ca^2+] expressed as the ratio R=F340/F380) were performed either with a CytoCypher MultiCell System (CytoCypher BV, Netherlands; FIGS. 1C-F, 2D-G, 4A-F) or an Axiovert 200 microscope (Zeiss, Oberkochen, Germany) fluorescence imaging assembly (FIGS. 2A-C, 2H-J, 3A-E, 6E-I). […] Experiments were conducted at 37° C. and CaT were recorded at steady state (following electric stimulation).
CaT and sarcomere shortening of LA and LV cardiomyocytes were recorded for 10 s at 3 Hz stimulation. See FIGS. 2D-G, 4A-F. Electric stimulation was turned off and spontaneous SR Ca^2+ release events (See Voigt N, Heijman J, Wang Q, Chiang D Y, Li N, Karck M, Wehrens X H T, Nattel S, Dobrev D: “Cellular and molecular mechanisms of atrial arrhythmogenesis in patients with paroxysmal atrial fibrillation,” Circulation 2014, 129(2):145-156) (SCaEs) immediately recorded for a duration of 10 s (FIG. 1C-F). […]

[1] = system: high-fat diet/streptozotocin-induced diabetic rats; settings: via improved mitochondrial function; cited from earlier work

Row | SMILES | occurrence of SCaEs (LA cardiomyocytes) | diabetes related atrial fibrillation [1]
1 | CC(=O)N[C@@H](CS)C(=O)O [acetylcysteine] | decreased | –
2 | OC[C@H]1O[C@@H](c2ccc(Cl)c(Cc3ccc(O[C@H]4CCOC4)cc3)c2)[C@H](O)[C@@H](O)[C@@H]1O [empagliflozin] | – | mitigate

Reference: patent publication US20240100013A1, “SOTAGLIFLOZIN FOR IMPROVING LEFT ATRIAL FUNCTION” (CHARITÉ-UNIVERSITÄTSMEDIZIN BERLIN, priority 2021, published 2024)
